Test results published in PubChem BioAssay (NCI).
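Values below derive from 48-hour exposures of cells grown in 96-well plates, with endpoints linearly interpolated between the two concentrations bracketing the appropriate inhibition level. TGI: total growth inhibition.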

Key:
Test in all cases: NCI-60 cell line screen, 48 h
786-0 renal = test system: 786-0 renal
A498 renal = test system: A498 renal
A549 NSCLC = test system: A549 NSCLC
ACHN renal = test system: ACHN renal
BT-549 breast = test system: BT-549 breast
CAKI-1 renal = test system: CAKI-1 renal
CCRF-CEM leukemia = test system: CCRF-CEM leukemia
COLO 205 colon = test system: COLO 205 colon
DLD-1 colon = test system: DLD-1 colon
DMS 114 small cell lung = test system: DMS 114 small cell lung
DMS 273 small cell lung = test system: DMS 273 small cell lung
DU-145 prostate = test system: DU-145 prostate
EKVX NSCLC = test system: EKVX NSCLC
HCC-2998 colon = test system: HCC-2998 colon
HCT-116 colon = test system: HCT-116 colon
HCT-15 colon = test system: HCT-15 colon
HL-60(TB) leukemia = test system: HL-60(TB) leukemia
HOP-18 NSCLC = test system: HOP-18 NSCLC
HOP-62 NSCLC = test system: HOP-62 NSCLC
HOP-92 NSCLC = test system: HOP-92 NSCLC
HS 578T breast = test system: HS 578T breast
HT29 colon = test system: HT29 colon
IGROV1 ovarian = test system: IGROV1 ovarian
K-562 leukemia = test system: K-562 leukemia
KM12 colon = test system: KM12 colon
KM20L2 colon = test system: KM20L2 colon
LOX IMVI melanoma = test system: LOX IMVI melanoma
LXFL 529 NSCLC = test system: LXFL 529 NSCLC
M14 melanoma = test system: M14 melanoma
M19-MEL melanoma = test system: M19-MEL melanoma
MALME-3M melanoma = test system: MALME-3M melanoma
MCF7 breast = test system: MCF7 breast
MDA-MB-231 breast = test system: MDA-MB-231 breast
MDA-MB-435 = test system: MDA-MB-435
MDA-N = test system: MDA-N
MOLT-4 leukemia = test system: MOLT-4 leukemia
NCI-H226 lung = test system: NCI-H226 lung
NCI-H23 lung = test system: NCI-H23 lung
NCI-H460 lung = test system: NCI-H460 lung
NCI-H522 lung = test system: NCI-H522 lung
NCI/ADR-RES ovarian = test system: NCI/ADR-RES ovarian
OVCAR-3 ovarian = test system: OVCAR-3 ovarian
OVCAR-4 ovarian = test system: OVCAR-4 ovarian
OVCAR-5 ovarian = test system: OVCAR-5 ovarian
OVCAR-8 ovarian = test system: OVCAR-8 ovarian
PC-3 prostate = test system: PC-3 prostate
RPMI-8226 leukemia = test system: RPMI-8226 leukemia
RXF 393 renal = test system: RXF 393 renal
SF-268 CNS = test system: SF-268 CNS
SF-295 CNS = test system: SF-295 CNS
SF-539 CNS = test system: SF-539 CNS
SK-MEL-2 melanoma = test system: SK-MEL-2 melanoma
SK-MEL-28 melanoma = test system: SK-MEL-28 melanoma
SK-MEL-5 melanoma = test system: SK-MEL-5 melanoma
SK-OV-3 ovarian = test system: SK-OV-3 ovarian
SN12C renal = test system: SN12C renal
SNB-19 CNS = test system: SNB-19 CNS
SNB-75 CNS = test system: SNB-75 CNS
SNB-78 CNS = test system: SNB-78 CNS
SR leukemia = test system: SR leukemia
SW-620 colon = test system: SW-620 colon
T-47D breast = test system: T-47D breast
TK-10 renal = test system: TK-10 renal
U251 CNS = test system: U251 CNS
UACC-257 melanoma = test system: UACC-257 melanoma
UACC-62 melanoma = test system: UACC-62 melanoma
UO-31 renal = test system: UO-31 renal
XF 498 CNS = test system: XF 498 CNS

`CSC(=Nc1nnc(-c2ccc([N+](=O)[O-])cc2)s1)SC` gave a TGI (786-0 renal) of 55.5 µM, a TGI (A498 renal) of 64.6 µM and a TGI (A549 NSCLC) of over 100 µM. For the same molecule, the TGI (ACHN renal) was over 100 µM, the TGI (BT-549 breast) was over 100 µM and the TGI (CAKI-1 renal) was 38.4 µM. It also gave a TGI (CCRF-CEM leukemia) of over 100 µM, a TGI (COLO 205 colon) of over 100 µM and a TGI (DLD-1 colon) of over 100 µM. For the same molecule, the TGI (DMS 114 small cell lung) was over 82 µM, the TGI (DMS 273 small cell lung) was over 100 µM and the TGI (DU-145 prostate) was over 100 µM. It also gave a TGI (EKVX NSCLC) of over 100 µM, a TGI (HCC-2998 colon) of over 100 µM and a TGI (HCT-116 colon) of over 83.7 µM. It also gave a TGI (HCT-15 colon) of over 100 µM, a TGI (HL-60(TB) leukemia) of over 100 µM and a TGI (HOP-18 NSCLC) of over 71.6 µM. For the same molecule, the TGI (HOP-62 NSCLC) was 53.3 µM, the TGI (HOP-92 NSCLC) was 33.1 µM and the TGI (HS 578T breast) was over 81.8 µM. The TGI (HT29 colon) was over 100 µM, the TGI (IGROV1 ovarian) was over 91.6 µM and the TGI (K-562 leukemia) was over 100 µM. The TGI (KM12 colon) was over 100 µM, the TGI (KM20L2 colon) was over 100 µM and the TGI (LOX IMVI melanoma) was over 83.3 µM. The TGI (LXFL 529 NSCLC) was over 100 µM, the TGI (M14 melanoma) was over 100 µM and the TGI (M19-MEL melanoma) was over 100 µM. For the same molecule, the TGI (MALME-3M melanoma) was over 100 µM, the TGI (MCF7 breast) was over 100 µM and the TGI (MDA-MB-231 breast) was over 100 µM. It also gave a TGI (MDA-MB-435) of over 100 µM, a TGI (MDA-N) of over 100 µM and a TGI (MOLT-4 leukemia) of over 100 µM. For the same molecule, the TGI (NCI-H226 lung) was over 100 µM, the TGI (NCI-H23 lung) was 98.6 µM and the TGI (NCI-H460 lung) was over 100 µM. For the same molecule, the TGI (NCI-H522 lung) was 99.2 µM, the TGI (NCI/ADR-RES ovarian) was over 100 µM and the TGI (OVCAR-3 ovarian) was over 89.7 µM. The TGI (OVCAR-4 ovarian) was over 85 µM, the TGI (OVCAR-5 ovarian) was over 100 µM and the TGI (OVCAR-8 ovarian) was over 100 µM. For the same molecule, the TGI (PC-3 prostate) was over 100 µM, the TGI (RPMI-8226 leukemia) was over 100 µM and the TGI (RXF 393 renal) was 45.4 µM. For the same molecule, the TGI (SF-268 CNS) was 68 µM, the TGI (SF-295 CNS) was 50 µM and the TGI (SF-539 CNS) was 44.5 µM. For the same molecule, the TGI (SK-MEL-2 melanoma) was over 91.6 µM, the TGI (SK-MEL-28 melanoma) was over 100 µM and the TGI (SK-MEL-5 melanoma) was over 100 µM. The TGI (SK-OV-3 ovarian) was 62.4 µM, the TGI (SN12C renal) was over 100 µM and the TGI (SNB-19 CNS) was 63.2 µM. For the same molecule, the TGI (SNB-75 CNS) was 33.6 µM, the TGI (SNB-78 CNS) was 60.9 µM and the TGI (SR leukemia) was over 100 µM. For the same molecule, the TGI (SW-620 colon) was over 100 µM, the TGI (T-47D breast) was over 100 µM and the TGI (TK-10 renal) was 44.8 µM. It also gave a TGI (U251 CNS) of 58.1 µM, a TGI (UACC-257 melanoma) of over 100 µM and a TGI (UACC-62 melanoma) of over 76.5 µM. The TGI (UO-31 renal) was 71.5 µM and the TGI (XF 498 CNS) was 43.3 µM.
